target: T1, Dipeptidyl Peptidase-IV (DPP-IV) (Homo sapiens, UniProt P27487); experiment: Measurement of DPP-IV Activity-Inhibiting Ability (fluorescent substrate Ac-Gly-Pro-AFC); assay type: biochemical; details: 25° C., 50 mmol HEPES (pH 7.4), DP-IV 7.1 nM, enzyme reaction for 1 hour
T1 construct: made in house
Source text: Dipeptidyl Peptidase-IV (DPP-IV), known as serine protease, was obtained by a modification of the known method (Tanaka T. et al, Proc. Natl. Acad. Sci. USA, (1994) 91, 3082-3086), which comprises cloning, purification by use of Baculo-Virus and activation steps. DPP-IV was used to test the pharmaceutical efficacy of candidate inhibitors as follows. The cloned DP-IV was expressed in Baculo-Virus, which was purified by nickel column and then subjected to dialysis. The inhibitors synthesized in Examples were tested to determine the binding activity there of using a fluorescent substrate, Ac-Gly-Pro-AFC. Enzyme reactions were conducted for various concentrations of inhibitors, using 100 µM Ac-Gly-Pro-AFC at 25° C. in a buffer solution containing 50 mmol HEPES (pH 7.4), with the concentration of DP-IV being 7.1 nM. […] As the fluorescent spectrometer, Spectra MAX GeminiXS fluorescent spectrometer from Molecular Device Co. was used and the excitation frequency and emission frequency were set to 400 nm and 505 nm, respectively.

T1 sequence (P27487 whole entry): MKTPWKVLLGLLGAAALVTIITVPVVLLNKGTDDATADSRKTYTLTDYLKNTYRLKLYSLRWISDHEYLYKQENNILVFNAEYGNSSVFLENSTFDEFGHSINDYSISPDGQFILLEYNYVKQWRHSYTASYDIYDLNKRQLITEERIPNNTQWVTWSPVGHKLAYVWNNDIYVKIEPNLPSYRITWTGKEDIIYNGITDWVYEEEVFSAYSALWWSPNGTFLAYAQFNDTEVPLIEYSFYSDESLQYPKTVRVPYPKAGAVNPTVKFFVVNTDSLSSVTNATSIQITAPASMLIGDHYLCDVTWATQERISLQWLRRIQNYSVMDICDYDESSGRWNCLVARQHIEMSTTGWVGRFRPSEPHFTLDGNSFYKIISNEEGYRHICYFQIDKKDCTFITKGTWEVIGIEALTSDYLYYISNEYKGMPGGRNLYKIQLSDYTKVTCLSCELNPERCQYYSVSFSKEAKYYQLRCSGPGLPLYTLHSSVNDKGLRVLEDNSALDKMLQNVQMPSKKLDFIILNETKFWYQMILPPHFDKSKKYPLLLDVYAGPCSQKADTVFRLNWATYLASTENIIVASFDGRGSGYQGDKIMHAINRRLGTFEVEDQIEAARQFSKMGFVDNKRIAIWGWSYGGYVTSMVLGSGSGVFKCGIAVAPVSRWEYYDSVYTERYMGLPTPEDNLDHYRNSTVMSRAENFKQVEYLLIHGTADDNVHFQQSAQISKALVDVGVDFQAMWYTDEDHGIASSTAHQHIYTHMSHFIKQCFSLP

**Q.** With C[C@@H]1CCC(=O)N(C[C@@H](N)CC(=O)N2CCc3c(nc(-c4ccc(F)cc4)nc3C(F)(F)F)C2)C1 [Ex. 34, (5R)-1-{(2S)-2-amino-4-[2-(4-fluorophenyl)-4-(trifluoromethyl)-5,8-dihydropyrido[3,4-d]pyrimidin-7(6H)-yl]-4-oxobutyl}-5-methylpiperidin-2-one] as the compound, how does the IC50 read?
**A.** 0.034 µM

**Q.** Which IC50 does the source give for N[C@@H](CC(=O)N1CCc2c(nc(-c3ccc(F)c(F)c3)nc2C(F)(F)F)C1)CN1CC(F)(F)CCC1=O [Ex. 35, 1-{(2S)-2-amino-4-[2-(3,4-difluorophenyl)-4-(trifluoromethyl)-5,8-dihydropyrido[3,4-d]pyrimidin-7(6H)-yl]-4-oxobutyl}-5,5-difluoropiperidin-2-one] here?
**A.** 0.051 µM

**Q.** Which IC50 does the source give for C[C@H]1CN(C[C@@H](N)CC(=O)N2CCc3c(nc(-c4ccc(F)c(F)c4)nc3C(F)(F)F)C2)C(=O)CO1 [Ex. 36] here?
**A.** 0.033 µM

**Q.** With C[C@@H]1CCC(=O)N(C[C@@H](N)CC(=O)N2CCc3c(nc(-c4ccc(F)c(F)c4)nc3C(F)(F)F)C2)C1 [Ex. 37, (5R)-1-{(2S)-2-amino-4-[2-(3,4-difluorophenyl)-4-(trifluoromethyl)-5,8-dihydropyrido[3,4-d]pyrimidin-7(6H)-yl]-4-oxobutyl}-5-methylpiperidin-2-one] as the compound, how does the IC50 read?
**A.** 0.036 µM

**Q.** Which IC50 does the source give for C[C@@H]1CCC(=O)N(C[C@@H](N)CC(=O)N2CCc3c(nc(C4CCCC4)nc3C(F)(F)F)C2)C1 [Ex. 38, (5R)-1-{(2S)-2-amino-4-[2-cyclopentyl-4-(trifluoromethyl)-5,8-dihydropyrido[3,4-d]pyrimidin-7(6H)-yl]-4-oxobutyl}-5-methylpiperidin-2-one] here?
**A.** 0.02 µM

**Q.** Which IC50 does the source give for C[C@H]1CN(C[C@@H](N)CC(=O)N2CCc3c(nc(C4CCCC4)nc3C(F)(F)F)C2)C(=O)CO1 [Ex. 39] here?
**A.** 0.051 µM

**Q.** Which IC50 does the source give for N[C@@H](CC(=O)N1CCc2c(nc(C3CCCC3)nc2C(F)(F)F)C1)CN1CC(F)(F)CCC1=O [Ex. 40, 1-{(2S)-2-amino-4-[2-cyclopentyl-4-(trifluoromethyl)-5,8-dihydropyrido[3,4-d]pyrimidin-7(6H)-yl]-4-oxobutyl}-5,5-difluoropiperidin-2-one] here?
**A.** 0.03 µM

**Q.** How did the IC50 turn out when C[C@@H]1CCC(=O)N(C[C@@H](N)CC(=O)N2CCc3sc(-c4ccc(C(F)(F)F)cc4)nc3C2)C1 [Ex. 41, (5R)-1-[(2S)-2-amino-4-oxo-4-{2-[4-(trifluoromethyl)phenyl]-6,7-dihydro[1,3]thiazolo[4,5,c]pyridin-5(4H)-yl}butyl]-5-methylpiperidin-2-one] was run?
**A.** 0.014 µM

**Q.** With C[C@H]1CN(C[C@@H](N)CC(=O)N2CCc3sc(-c4ccc(C(F)(F)F)cc4)nc3C2)C(=O)CO1 [Ex. 42, (6S)-4-[(2S)-2-amino-4-oxo-4-{2-[4-(trifluoromethyl)phenyl]-6,7-dihydro[1,3]thiazolo[4,5,c]pyridin-5(4H)-yl}butyl]-6-methylmorpholine-3-one] as the compound, how does the IC50 read?
**A.** 0.014 µM

**Q.** N[C@@H](CC(=O)N1CCc2sc(-c3ccc(C(F)(F)F)cc3)nc2C1)CN1CC(F)(F)CCC1=O [Ex. 43, 1-[(2S)-2-amino-4-oxo-4-{2-[4-(trifluoromethyl)phenyl]-6,7-dihydro[1,3]thiazolo[4,5,c]pyridin-5(4H)-yl}butyl]-5,5-difluoropiperidin-2-one] was tested. Which IC50 did it give?
**A.** 0.009 µM

**Q.** For C[C@@H]1CCC(=O)N(C[C@@H](N)CC(=O)N2CCc3sc(-c4ccc(F)cc4)nc3C2)C1 [Ex. 44, (5R)-1-{(2S)-2-amino-4-[2-(4-fluorophenyl)-6,7-dihydro[1,3]thiazolo[4,5,c]pyridin-5(4H)-yl]-4-oxobutyl}-5-methylpiperidin-2-one], which IC50 is on record?
**A.** 0.013 µM

**Q.** For C[C@H]1CN(C[C@@H](N)CC(=O)N2CCc3sc(-c4ccc(F)cc4)nc3C2)C(=O)CO1 [Ex. 45, (6S)-4-{(2S)-2-amino-4-oxo-4-[2-(4-fluorophenyl)6,7-dihydro[1,3]thiazolo[4,5,c]pyridin-5(4H)-yl]butyl}-6-methylmorpholine-3-one], which IC50 is on record?
**A.** 0.022 µM

**Q.** How did the IC50 turn out when N[C@@H](CC(=O)N1CCc2sc(-c3ccc(F)cc3)nc2C1)CN1CC(F)(F)CCC1=O [Ex. 46, 1-{(2S)-2-amino-4-[2-(4-fluorophenyl)-6,7-dihydro[1,3]thiazolo[4,5,c]pyridin-5(4H)-yl]-4-oxobutyl}-5,5-difluoropiperidin-2-one] was run?
**A.** 0.022 µM

**Q.** C[C@@H]1CCC(=O)N(C[C@@H](N)CC(=O)N2CCc3sc(C4CCOCC4)nc3C2)C1 [Ex. 47, (5R)-1-{(2S)-2-amino-4-oxo-4-[2-(tetrahydro-2H-pyran-4-yl)-6,7-dihydro[1,3]thiazolo[4,5,c]pyridin-5(4H)-yl]butyl}-5-methylpiperidin-2-one] was tested. Which IC50 did it give?
**A.** 0.279 µM

**Q.** With C[C@H]1CN(C[C@@H](N)CC(=O)N2CCc3sc(C4CCOCC4)nc3C2)C(=O)CO1 [Ex. 48, (6S)-4-{(2R)-2-amino-4-oxo-4-[2-(tetrahydro-2H-pyran-4-yl)-6,7-dihydro[1,3]thiazolo[4,5,c]pyridin-5(4H)-yl]butyl}-6-methylmorpholine-3-one] as the compound, how does the IC50 read?
**A.** 0.357 µM

**Q.** For N[C@@H](CC(=O)N1CCc2sc(C3CCOCC3)nc2C1)CN1CC(F)(F)CCC1=O [Ex. 49, 1-{(2S)-2-amino-4-oxo-4-[2-(tetrahydro-2H-pyran-4-yl)-6,7-dihydro[1,3]thiazolo[4,5, c]pyridin-5(4H)-yl]butyl}-5,5-difluoropiperidin-2-one], which IC50 is on record?
**A.** 0.236 µM

**Q.** Which IC50 does the source give for C[C@H]1CN(C[C@@H](N)CC(=O)N2CCc3sc(C(F)(F)F)nc3C2)C(=O)CO1 [Ex. 50, (6S)-4-{(2S)-2-amino-4-oxo-4-[2-(trifluoromethyl)-6,7-dihydro[1,3]thiazolo[4,5,c]pyridin-5(4H)-yl]butyl}-6-methylmorpholine-3-one] here?
**A.** 0.422 µM

**Q.** How did the IC50 turn out when N[C@@H](CC(=O)N1CCc2sc(C(F)(F)F)nc2C1)CN1CC(F)(F)CCC1=O [Ex. 51, 1-{(2S)-2-amino-4-oxo-4-[2-(trifluoromethyl)-6,7-dihydro[1,3]thiazolo[4,5,c]pyridin-5(4H)-yl]butyl}-5,5-difluoropiperidin-2-one] was run?
**A.** 0.114 µM

**Q.** How did the IC50 turn out when COCCc1nc2c(c(C(F)(F)F)n1)CCN(C(=O)C[C@H](N)CN1C[C@H](C)CCC1=O)C2 [Ex. 52, (5R)-1-{(2S)-2-amino-4-[2-(2-methoxyethyl)-4-(trifluoromethyl)-5,8-dihydropyrido[3,4-d]pyrimidin-7(6H)-yl]-4-oxobutyl}-5-methylpiperidin-2-one] was run?
**A.** 0.018 µM

**Q.** Which IC50 does the source give for COCCc1nc2c(c(C(F)(F)F)n1)CCN(C(=O)C[C@H](N)CN1CC(F)(F)CCC1=O)C2 [Ex. 53, 1-{(2S)-2-amino-4-[2-(2-methoxyethyl)-4-(trifluoromethyl)-5,8-dihydropyrido[3,4-d]pyrimidin-7(6H)-yl]-4-oxobutyl}-5,5-difluoropiperidin-2-one] here?
**A.** 0.026 µM

**Q.** For C[C@@H]1CCC(=O)N(C[C@@H](N)CC(=O)N2CCc3c(nc(CC4CC4)nc3C(F)(F)F)C2)C1 [Ex. 54, (5R)-1-{(2S)-2-amino-4-[2-(cyclopropylmethyl)-4-(trifluoromethyl)-5,8-dihydropyrido[3,4-d]pyrimidin-7(6H)-yl]-4-oxobutyl}-5-methylpiperidin-2-one], which IC50 is on record?
**A.** 0.03 µM

**Q.** N[C@@H](CC(=O)N1CCc2c(nc(CC3CC3)nc2C(F)(F)F)C1)CN1CC(F)(F)CCC1=O [Ex. 55, 1-{(2S)-2-amino-4-[2-(cyclopropylmethyl)-4-(trifluoromethyl)-5,8-dihydropyrido[3,4-d]pyrimidin-7(6H)-yl]-4-oxobutyl}-5,5-difluoropiperidin-2-one] was tested. Which IC50 did it give?
**A.** 0.02 µM

**Q.** C[C@@H]1CCC(=O)N(C[C@@H](N)CC(=O)N2CCc3c(nc(-c4ccncc4)nc3C(F)(F)F)C2)C1 [Ex. 56, (5R)-1-{(2S)-2-amino-4-oxo-4-[2-pyridin-4-yl-4-(trifluoromethyl)-5,8-dihydropyrido[3,4-d]pyrimidin-7(6H)-yl]butyl}-5-methylpiperidin-2-one] was tested. Which IC50 did it give?
**A.** 0.011 µM

**Q.** How did the IC50 turn out when N[C@@H](CC(=O)N1CCc2c(nc(-c3ccncc3)nc2C(F)(F)F)C1)CN1CC(F)(F)CCC1=O [Ex. 57, 1-{(2S)-2-amino-4-oxo-4-[2-pyridin-4-yl-4-(trifluoromethyl)-5,8-dihydropyrido[3,4-d]pyrimidin-7(6H)-yl]butyl}-5,5-difluoropiperidin-2-one] was run?
**A.** 0.048 µM

**Q.** Which IC50 does the source give for C[C@@H]1CCC(=O)N(C[C@@H](N)CC(=O)N2CCc3c(nc(Cc4ccc(F)cc4)nc3C(F)(F)F)C2)C1 [Ex. 58, (5R)-1-{(2S)-2-amino-4-[2-(4-fluorobenzyl)-4-(trifluoromethyl)-5,8-dihydropyrido[3,4-d]pyrimidin-7(6H)-yl]-4-oxobutyl}-5-methylpiperidin-2-one] here?
**A.** 0.014 µM

**Q.** How did the IC50 turn out when N[C@@H](CC(=O)N1CCc2c(nc(Cc3ccc(F)cc3)nc2C(F)(F)F)C1)CN1CC(F)(F)CCC1=O [Ex. 59, 1-{(2S)-2-amino-4-[2-(4-fluorobenzyl)-4-(trifluoromethyl)-5,8-dihydropyrido[3,4-d]pyrimidin-7(6H)-yl]-4-oxobutyl}-5,5-difluoropiperidin-2-one] was run?
**A.** 0.036 µM

**Q.** C[C@@H]1CCC(=O)N(C[C@@H](N)CC(=O)N2CCc3c(nc(-c4ccsc4)nc3C(F)(F)F)C2)C1 [Ex. 60, (5R)-1-{(2S)-2-amino-4-oxo-4-[2-(3-thienyl)-4-(trifluoromethyl)-5,8-dihydropyrido[3,4-d]pyrimidin-7(6H)-yl]butyl}-5-methylpiperidin-2-one] was tested. Which IC50 did it give?
**A.** 0.061 µM

**Q.** For N[C@@H](CC(=O)N1CCc2c(nc(-c3ccsc3)nc2C(F)(F)F)C1)CN1CC(F)(F)CCC1=O [Ex. 61, 1-{(2S)-2-amino-4-oxo-4-[2-(3-thienyl)-4-(trifluoromethyl)-5,8-dihydropyrido[3,4-d]pyrimidin-7(6H)-yl]butyl}-5,5-difluoropiperidin-2-one], which IC50 is on record?
**A.** 0.055 µM

Reference: US7879848B2, “Dipeptidyl Peptidase-IV inhibiting compounds, method of preparing the same, and pharmaceutical compositions containing the same as an active agent” (LG Life Sciences, Ltd., priority 2005, dated 2011)
